Like-named read-outs stand apart in the source and are kept apart here.
Experiments:
[1] = test system: Candida albicans ATCC10231; experiment: Systemic fungal infection in mice, administration by gavage, survival; format: in vivo; conditions: ICR mice, 5 mg/kg (calculated as voriconazole) once daily for 5 days
Method: (§1) ICR mice, weighing 18-22 g, male, provided by the Hubei Experimental Animal Center.
(§2) The standard strain Candida albicans was purchased from the American Type Culture Collection, and the strain number was ATCC10231.
Before the experiment, a small amount of Candida albicans was picked from the SDA medium preserved at 4° C. by inoculation circle, inoculated into 1 ml of YPD culture medium, and cultured at 30° C. while being shaken at 200 rpm for 16 hours to make the fungus in the late stage of exponential growth. Blood cell counting plate was used to count, and the concentration of the broth was adjusted to 1*10^3−5*10^3 CFU/ml with RPMI1640 medium. The Candida albicans monoclone on the SDA plate was picked, inoculated into 1 ml YPD medium, cultured at 35° C., 200 rpm for 16 hours to the late exponential growth phase, 1% of which was then inoculated in fresh medium for 6 hours, centrifuged at 1000×g for 5 mins, washed three times with saline until the supernatant was colorless, while hemocytometer was used to count. The cell concentration was adjusted to 5*10^6/ml. The tail vein injection of 0.1 ml/10 g was carried out to cause a systemic fungal infection in mice. The mice were randomized into groups of 10 each. Voriconazole used was in the form of a suspension prepared with CMC-Na (Shanghai Panhong Chemical Technology Co., Ltd.), while other tested drugs were dissolved in saline and sonicated until clarified for administration. After establishing a systemic fungal infection model in mice for 2 hours, each group was administered by gavage with 5 mg/kg (calculated as voriconazole) drug, with the volume for administration of 0.1 ml/10 g. The mice in the model group were administered 0.1 ml/10 g of 0.9% sodium chloride solution, once daily, for 5 consecutive days. The death situation of the mice was inspected and the survival time was recorded. After a total of 7 days of observation, all dead mice were treated with fire using ethanol.

[2] = In vitro metabolic stability in human plasma; format: in vitro ADME; conditions: 37°C, compound 10 μM
Method: (§3) The two reaction systems were set up three samples in parallel, while each sample was taken in an amount of 100 μL at 1 min, 2 mins, 5 mins, 15 mins, and 30 mins after the reaction, added to the centrifuge tube containing 400 μL of 0° C. pre-cooled internal standard working fluid and terminated the reaction. The sample was mixed by vortex for 1 min, centrifuged at 10,000×g for 10 mins in a 4° C. pre-cooled high-speed centrifuge. The supernatant was taken for HPLC detection.

[3] = In vitro metabolic stability in rat intestinal S9; format: in vitro ADME; conditions: 37°C, S9 1 mg/mL, compound 10 μM, NADPH regeneration system
Method: as §3, with “detection. […] Concentration of mother liquor of compounds: 1 mM […] [table]” for “detection.”

[4] = Pharmacokinetics after single gastrointestinal (gavage) administration in rats (plasma voriconazole); format: in vivo; conditions: SD rats, 2.5 mg/kg (calculated as voriconazole)
Method: Dosing volume for administration: 10 ml/kg
Solvent medium for administration: except for the positive voriconazole group using CMC-Na, the other groups using normal saline
Route of administration: gavage

[5] = Pharmacokinetics after single intravenous administration in rats (plasma voriconazole)
Method: Dosage for administration: 2.5 mg/kg (calculated as voriconazole)
Dosing volume for administration: 2.5 ml/kg
Drug concentration: 1 mg/mL (calculated as voriconazole)
Route of administration: tail vein injection Experimental animals: SD rats, SPF grade, weighing 180-220 g, half male and half female; the SD rats were randomized into groups of 6 animals each, three males and three females in each group. Experimental method: Blood samples were collected at different time points after tail vein administration, and the plasma concentrations of voriconazole were measured.

[6] = In vitro metabolic stability in human intestinal S9; format: in vitro ADME; conditions: 37°C, S9 1 mg/mL, compound 10 μM, NADPH regeneration system
Method: as §3, with “detection. […] Concentration of mother liquor of compounds: 1 mM […] [table]” for “detection.”

[7] = In vitro metabolic stability in rat plasma; format: in vitro ADME; conditions: 37°C, compound 10 μM
Method: as §3, with “detection. […] Concentration of mother liquor of compounds: 1 mM […]” for “detection.”

[8] = Solubility test in deionized water (HPLC, external calibration); format: physicochemical
Method: Experimental condition: 25±2° C.
Dissolving medium: deionized water
Experimental method: 1 mg voriconazole and appropriate amount of each compound were weighed, placed in 1 ml deionized water separately, shaken vigorously for 30 s every 5 mins for 30 mins.

[9] = test system: Candida albicans ATCC10231; experiment: Systemic fungal infection in mice, intravenous administration, survival; format: in vivo; conditions: ICR mice, tail vein, 5 mg/kg (calculated as voriconazole) once daily for 5 days
Method: as §1, §2
Before the experiment, a small amount of Candida albicans was picked from the SDA medium preserved at 4° C. by inoculation circle, and inoculated into 1 ml YPD (Yeast Extract Peptone Dextrose Medium, the same below) culture medium, under shake cultivation at 30° C., 200 rpm, activated for 16 hours to make the fungus in the late stage of the exponential growth phase. Blood cell counting plate was used to count. The concentration of the broth was adjusted to 1*10^3-5*10^3 CFU/ml with RPMI1640 (Roswell Park Memorial Institute 1640, the same below) culture medium. The Candida albicans monoclone on the SDA plate was picked and inoculated into 1 ml YPD medium, cultured at 35° C., 200 rpm for 16 hours to the late exponential growth phase, 1% of which was then inoculated in fresh medium for 6 hours, centrifuged at 1000×g for 5 mins, washed three times with saline until the supernatant was colorless, while hemocytometer was used to count. The cell concentration was adjusted to 5*10^6/ml. The tail vein injection of 0.1 ml/10 g was carried out to cause a systemic fungal infection in mice. The mice were randomized into groups of 10 each. Since voriconazole was insoluble in vehicle (physiological saline), the mice of the voriconazole group in the test were injected a commercially available voriconazole (Pfizer, product lot number Z467001), that is, sulfobutyl ether-β-cyclodextrin used as a solubilizer, while other groups used physiological saline as a solvent. After establishing a systemic fungal infection model in mice for 2 hours, each administration group was administered with 5 mg/kg (calculated as voriconazole) drug in the tail vein, with the volume for administration of 0.1 ml/10 g. The mice in the model group were administered 0.1 ml/10 g of 0.9% sodium chloride solution, once daily, for 5 consecutive days. The death situation of the mice was inspected and the survival time was recorded. After a total of 7 days of observation, all dead mice were treated with fire using ethanol.

[10] = voriconazole in plasma, SD rats, tail vein injection, 2.5 mg/kg (calculated as voriconazole)

SMILES: CC(OC(=O)N(C)c1ncccc1COC(=O)CN)[n+]1cnn(C[C@](O)(c2ccc(F)cc2F)[C@@H](C)c2ncncc2F)c1.[Cl-] (some centres unmarked) [QR16001]
- survival rate of mice, day 1 [1]: 100%
- survival rate of mice, day 2 [1]: 100%
- survival rate of mice, day 3 [1]: 100%
- survival rate of mice, day 4 [1]: 100%
- survival rate of mice, day 5 [1]: 90%
- survival rate of mice, day 6 [1]: 80%
- survival rate of mice, day 7 [1]: 80%
- Human plasma T1/2 [2]: 1.56 ± 0.26 min
- Rat intestinal S9 T1/2 [3]: 10.15 ± 2.65 min
- AUClast [4]: 8562 ± 1125 ng·h/mL
- Cmax [4]: 789 ± 362 ng/mL
- T1/2 [4]: 193 ± 76.8 min
- AUClast ([5]; rat, in vivo, 2.5 mg/kg): 10515 ± 1985 ng·h/mL
- T1/2 ([5]; rat, in vivo, 2.5 mg/kg): 128 ± 58.8 min
- Human intestinal S9 T1/2 [6]: 10.09 ± 1.75 min
- Rat plasma T1/2 [7]: 1.23 ± 0.45 min
- Solubility ([8]; deionized water, 25±2°C): >50 mg/mL
- survival rate of mice, day 1 [9]: 100%
- survival rate of mice, day 2 [9]: 100%
- survival rate of mice, day 3 [9]: 100%
- survival rate of mice, day 4 [9]: 100%
- survival rate of mice, day 5 [9]: 100%
- survival rate of mice, day 6 [9]: 100%

SMILES: CC(OC(=O)N(C)c1ncccc1COC(=O)C(N)CO)[n+]1cnn(CC(O)(c2ccc(F)cc2F)C(C)c2ncncc2F)c1.Cl.Cl.[Cl-] (centres unmarked) [QR16015]
- survival rate of mice, day 1 [1]: 100%
- survival rate of mice, day 2 [1]: 100%
- survival rate of mice, day 3 [1]: 100%
- survival rate of mice, day 4 [1]: 100%
- survival rate of mice, day 5 [1]: 100%
- survival rate of mice, day 6 [1]: 80%
- survival rate of mice, day 7 [1]: 80%
- Human plasma T1/2 [2]: 2.05 ± 0.26 min
- Rat intestinal S9 T1/2 [3]: 15.95 ± 4.96 min
- AUClast [4]: 8144 ± 1468 ng·h/mL
- Cmax [4]: 996 ± 365 ng/mL
- T1/2 [4]: 167 ± 73.8 min
- AUClast ([5]; rat, in vivo, 2.5 mg/kg): 10526 ± 2695 ng·h/mL
- T1/2 ([5]; rat, in vivo, 2.5 mg/kg): 171 ± 107 min
- Human intestinal S9 T1/2 [6]: 12.72 ± 1.72 min
- Rat plasma T1/2 [7]: 1.58 ± 0.95 min
- Solubility ([8]; deionized water, 25±2°C): >50 mg/mL
- survival rate of mice, day 1 [9]: 100%
- survival rate of mice, day 2 [9]: 100%
- survival rate of mice, day 3 [9]: 100%
- survival rate of mice, day 4 [9]: 100%
- survival rate of mice, day 5 [9]: 100%
- survival rate of mice, day 6 [9]: 90%

SMILES: CC(O)C(N)C(=O)OCc1cccnc1N(C)C(=O)OC(C)[n+]1cnn(CC(O)(c2ccc(F)cc2F)C(C)c2ncncc2F)c1.Cl.Cl.[Cl-] (centres unmarked) [QR16016]
- survival rate of mice, day 1 [1]: 100%
- survival rate of mice, day 2 [1]: 100%
- survival rate of mice, day 3 [1]: 90%
- survival rate of mice, day 4 [1]: 90%
- survival rate of mice, day 5 [1]: 90%
- survival rate of mice, day 6 [1]: 90%
- survival rate of mice, day 7 [1]: 80%
- Human plasma T1/2 [2]: 2.12 ± 1.07 min
- Rat intestinal S9 T1/2 [3]: 19.62 ± 3.69 min
- AUClast [4]: 8332 ± 3254 ng·h/mL
- Cmax [4]: 885 ± 344 ng/mL
- T1/2 [4]: 134 ± 75 min
- AUClast ([5]; rat, in vivo, 2.5 mg/kg): 10477 ± 1854 ng·h/mL
- T1/2 ([5]; rat, in vivo, 2.5 mg/kg): 159 ± 52.8 min
- Human intestinal S9 T1/2 [6]: 15.72 ± 0.98 min
- Rat plasma T1/2 [7]: 1.95 ± 0.87 min
- Solubility ([8]; deionized water, 25±2°C): >50 mg/mL
- survival rate of mice, day 1 [9]: 100%
- survival rate of mice, day 2 [9]: 100%
- survival rate of mice, day 3 [9]: 100%
- survival rate of mice, day 4 [9]: 100%
- survival rate of mice, day 5 [9]: 100%
- survival rate of mice, day 6 [9]: 90%

SMILES: CC(OC(=O)N(C)c1ncccc1COC(=O)[C@@H](N)CCCCN)[n+]1cnn(C[C@](O)(c2ccc(F)cc2F)[C@@H](C)c2ncncc2F)c1.[Cl-] (some centres unmarked) [QR16017]
- survival rate of mice, day 1 [1]: 100%
- survival rate of mice, day 2 [1]: 100%
- survival rate of mice, day 3 [1]: 90%
- survival rate of mice, day 4 [1]: 90%
- survival rate of mice, day 5 [1]: 90%
- survival rate of mice, day 6 [1]: 90%
- survival rate of mice, day 7 [1]: 80%
- Human plasma T1/2 [2]: 0.95 ± 0.28 min
- Rat intestinal S9 T1/2 [3]: 15.69 ± 6.95 min
- AUClast [4]: 8695 ± 2958 ng·h/mL
- Cmax [4]: 952 ± 421 ng/mL
- T1/2 [4]: 177 ± 75 min
- AUClast [5, 10]: 10259 ± 3285 ng·h/mL
- T1/2 [5, 10]: 167 ± 45 min
- Human intestinal S9 T1/2 [6]: 11.25 ± 2.21 min
- Rat plasma T1/2 [7]: 0.78 ± 0.86 min
- Solubility [8]: >50 mg/mL
- survival rate of mice, day 1 [9]: 100%
- survival rate of mice, day 2 [9]: 100%
- survival rate of mice, day 3 [9]: 100%
- survival rate of mice, day 4 [9]: 100%
- survival rate of mice, day 5 [9]: 100%
- survival rate of mice, day 6 [9]: 100%

— patent US11040958B2, “Triazole antimicrobial derivative, pharmaceutical composition and use thereof” (priority 2017, dated 2021)
